PubChem BioAssay (NCI)
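48-hour exposure; five concentrations; linearly interpolated endpoints. TGI: total growth inhibition.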

Experiments:
Assay in all cases: growth of human tumour cells (NCI), 48 h
MDA-MB-231 breast = test system: MDA-MB-231 breast
HOP-92 NSCLC = test system: HOP-92 NSCLC
A549 NSCLC = test system: A549 NSCLC
RPMI-8226 leukemia = test system: RPMI-8226 leukemia
SF-539 CNS = test system: SF-539 CNS
U251 CNS = test system: U251 CNS
HCT-15 colon = test system: HCT-15 colon
NCI-H460 lung = test system: NCI-H460 lung
NCI-H522 lung = test system: NCI-H522 lung
SK-MEL-28 melanoma = test system: SK-MEL-28 melanoma
SF-295 CNS = test system: SF-295 CNS
TK-10 renal = test system: TK-10 renal
CAKI-1 renal = test system: CAKI-1 renal
MDA-MB-435 = test system: MDA-MB-435
A498 renal = test system: A498 renal
SF-268 CNS = test system: SF-268 CNS
COLO 205 colon = test system: COLO 205 colon
OVCAR-4 ovarian = test system: OVCAR-4 ovarian
SW-620 colon = test system: SW-620 colon
T-47D breast = test system: T-47D breast
SK-OV-3 ovarian = test system: SK-OV-3 ovarian
SNB-75 CNS = test system: SNB-75 CNS
EKVX NSCLC = test system: EKVX NSCLC
UO-31 renal = test system: UO-31 renal
SK-MEL-2 melanoma = test system: SK-MEL-2 melanoma
HT29 colon = test system: HT29 colon
RXF 393 renal = test system: RXF 393 renal
KM12 colon = test system: KM12 colon
MALME-3M melanoma = test system: MALME-3M melanoma
MOLT-4 leukemia = test system: MOLT-4 leukemia
NCI/ADR-RES ovarian = test system: NCI/ADR-RES ovarian
OVCAR-3 ovarian = test system: OVCAR-3 ovarian
M14 melanoma = test system: M14 melanoma
OVCAR-8 ovarian = test system: OVCAR-8 ovarian
NCI-H226 lung = test system: NCI-H226 lung
UACC-257 melanoma = test system: UACC-257 melanoma
786-0 renal = test system: 786-0 renal
HCC-2998 colon = test system: HCC-2998 colon
NCI-H23 lung = test system: NCI-H23 lung
DU-145 prostate = test system: DU-145 prostate
UACC-62 melanoma = test system: UACC-62 melanoma
HCT-116 colon = test system: HCT-116 colon
CCRF-CEM leukemia = test system: CCRF-CEM leukemia
HL-60(TB) leukemia = test system: HL-60(TB) leukemia
MDA-N = test system: MDA-N
HOP-62 NSCLC = test system: HOP-62 NSCLC
SK-MEL-5 melanoma = test system: SK-MEL-5 melanoma
SNB-19 CNS = test system: SNB-19 CNS
HS 578T breast = test system: HS 578T breast
PC-3 prostate = test system: PC-3 prostate
IGROV1 ovarian = test system: IGROV1 ovarian
OVCAR-5 ovarian = test system: OVCAR-5 ovarian
MCF7 breast = test system: MCF7 breast
BT-549 breast = test system: BT-549 breast
SN12C renal = test system: SN12C renal
ACHN renal = test system: ACHN renal
K-562 leukemia = test system: K-562 leukemia
LOX IMVI melanoma = test system: LOX IMVI melanoma

COc1cc2c(cc1OC)C1C(O)C(OC)C(Br)C3(Br)CCN(C2)C13 (stereo not drawn)
TGI (MDA-MB-231 breast): > 100 µM
TGI (HOP-92 NSCLC): > 100 µM
TGI (A549 NSCLC): > 100 µM
TGI (RPMI-8226 leukemia): > 100 µM
TGI (SF-539 CNS): > 100 µM
TGI (U251 CNS): > 100 µM
TGI (HCT-15 colon): > 100 µM
TGI (NCI-H460 lung): > 100 µM
TGI (NCI-H522 lung): > 100 µM
TGI (SK-MEL-28 melanoma): > 100 µM
TGI (SF-295 CNS): > 100 µM
TGI (TK-10 renal): > 100 µM
TGI (CAKI-1 renal): > 100 µM
TGI (MDA-MB-435): > 100 µM
TGI (A498 renal): > 100 µM
TGI (SF-268 CNS): > 100 µM
TGI (COLO 205 colon): > 100 µM
TGI (OVCAR-4 ovarian): > 100 µM
TGI (SW-620 colon): > 100 µM
TGI (T-47D breast): > 100 µM
TGI (SK-OV-3 ovarian): > 100 µM
TGI (SNB-75 CNS): > 100 µM
TGI (EKVX NSCLC): > 100 µM
TGI (UO-31 renal): > 100 µM
TGI (SK-MEL-2 melanoma): > 100 µM
TGI (HT29 colon): > 100 µM
TGI (RXF 393 renal): > 100 µM
TGI (KM12 colon): > 100 µM
TGI (MALME-3M melanoma): > 100 µM
TGI (MOLT-4 leukemia): > 100 µM
TGI (NCI/ADR-RES ovarian): > 100 µM
TGI (OVCAR-3 ovarian): > 100 µM
TGI (M14 melanoma): > 100 µM
TGI (OVCAR-8 ovarian): > 100 µM
TGI (NCI-H226 lung): > 100 µM
TGI (UACC-257 melanoma): > 100 µM
TGI (786-0 renal): > 100 µM
TGI (HCC-2998 colon): > 100 µM
TGI (NCI-H23 lung): > 100 µM
TGI (DU-145 prostate): > 100 µM
TGI (UACC-62 melanoma): > 100 µM
TGI (HCT-116 colon): > 100 µM
TGI (CCRF-CEM leukemia): > 100 µM
TGI (HL-60(TB) leukemia): > 100 µM
TGI (MDA-N): > 100 µM
TGI (HOP-62 NSCLC): > 100 µM
TGI (SK-MEL-5 melanoma): > 100 µM
TGI (SNB-19 CNS): > 100 µM
TGI (HS 578T breast): > 100 µM
TGI (PC-3 prostate): > 100 µM
TGI (IGROV1 ovarian): > 100 µM
TGI (OVCAR-5 ovarian): > 100 µM
TGI (MCF7 breast): > 100 µM
TGI (BT-549 breast): > 100 µM
TGI (SN12C renal): > 100 µM
TGI (ACHN renal): > 100 µM

O=C(C(=NC12CC3CC(CC(C3)C1)C2)NNc1ccc([N+](=O)[O-])cc1[N+](=O)[O-])C(Br)C(=O)c1ccccc1 (stereo not drawn)
TGI (MDA-MB-231 breast): 6.13 µM
TGI (HOP-92 NSCLC): 6.66 µM
TGI (A549 NSCLC): > 10 µM
TGI (RPMI-8226 leukemia): 6.38 µM
TGI (SF-539 CNS): 8.73 µM
TGI (U251 CNS): > 10 µM
TGI (HCT-15 colon): > 10 µM
TGI (NCI-H460 lung): > 10 µM
TGI (SK-MEL-28 melanoma): > 10 µM
TGI (SF-295 CNS): > 10 µM
TGI (K-562 leukemia): > 10 µM
TGI (TK-10 renal): > 10 µM
TGI (CAKI-1 renal): > 10 µM
TGI (MDA-MB-435): > 10 µM
TGI (A498 renal): 6.96 µM
TGI (SF-268 CNS): > 10 µM
TGI (COLO 205 colon): 4.23 µM
TGI (OVCAR-4 ovarian): > 10 µM
TGI (SW-620 colon): > 10 µM
TGI (T-47D breast): 9.29 µM
TGI (SK-OV-3 ovarian): 9.04 µM
TGI (SNB-75 CNS): 7.38 µM
TGI (EKVX NSCLC): 9.64 µM
TGI (UO-31 renal): > 10 µM
TGI (SK-MEL-2 melanoma): > 10 µM
TGI (HT29 colon): > 10 µM
TGI (RXF 393 renal): 8.31 µM
TGI (KM12 colon): > 10 µM
TGI (MALME-3M melanoma): > 10 µM
TGI (MOLT-4 leukemia): 9.72 µM
TGI (NCI/ADR-RES ovarian): > 10 µM
TGI (OVCAR-3 ovarian): 8.83 µM
TGI (M14 melanoma): 6.84 µM
TGI (OVCAR-8 ovarian): > 10 µM
TGI (NCI-H226 lung): 8.31 µM
TGI (UACC-257 melanoma): 6.28 µM
TGI (786-0 renal): > 10 µM
TGI (HCC-2998 colon): > 10 µM
TGI (NCI-H23 lung): 8.4 µM
TGI (DU-145 prostate): > 10 µM
TGI (UACC-62 melanoma): > 10 µM
TGI (HCT-116 colon): 8.78 µM
TGI (CCRF-CEM leukemia): 7.67 µM
TGI (HL-60(TB) leukemia): 5.57 µM
TGI (MDA-N): > 10 µM
TGI (HOP-62 NSCLC): 6.84 µM
TGI (SK-MEL-5 melanoma): 2.5 µM
TGI (LOX IMVI melanoma): 6.25 µM
TGI (SNB-19 CNS): > 10 µM
TGI (HS 578T breast): > 10 µM
TGI (PC-3 prostate): 9.87 µM
TGI (IGROV1 ovarian): > 10 µM
TGI (OVCAR-5 ovarian): > 10 µM
TGI (MCF7 breast): > 10 µM
TGI (BT-549 breast): > 10 µM
TGI (SN12C renal): > 10 µM
TGI (ACHN renal): > 10 µM
